Source: ChEMBL document CHEMBL5126657, “Cytotoxic Cyclodepsipeptides and Cyclopentane Derivatives from a Plant-Associated Fungus Fusarium sp” (J Nat Prod, 2022)
Where a SMILES comes first, the peptide text is derived from it. [ ]: non-standard residue; d: D form. ξ: configuration not given here. NMeF = CN[C@@H](Cc1ccccc1)C(=O)O; Hica(2S) = CC(C)C[C@H](O)C(=O)O; ξLac(3-iPr) = CC(C)CC(O)C(=O)O

How the values were obtained:
Assay type in all cases: functional, cell-based
Huh-7 = assay: Antiproliferative activity against human Huh-7 cells assessed as reduction in cell viability after 48 hr by CCK-8 assay; details: Huh-7, 48 h
[1] = Antiproliferative activity against rat MRMT-1 cells assessed as reduction in cell viability after 48 hr by CCK-8 assay; details: MRMT-1, 48 h
HepG2 = assay: Antiproliferative activity against human HepG2 cells assessed as reduction in cell viability after 48 hr by CCK-8 assay; details: HepG2, 48 h

Compound	IC50 (Huh-7) [µM]	IC50 [1] [µM]	IC50 (HepG2) [µM]
CC(C)[C@H]1OC(=O)[C@H](Cc2ccccc2)N(C)C(=O)[C@@H](C(C)C)OC(=O)[C@H](Cc2ccccc2)N(C)C(=O)[C@@H](C(C)C)OC(=O)[C@H](Cc2ccccc2)N(C)C1=O	4.3	8.7	1
CCCCC/C=C\CCC(=O)OC1=C(c2ccccc2)CCC1=O	> 50	> 50	> 50
CCC(C)[C@H]1OC(=O)[C@H](C(C)C)N(C)C(=O)[C@@H](C(C)CC)OC(=O)[C@H](C(C)C)N(C)C(=O)[C@@H](C(C)CC)OC(=O)[C@H](C(C)C)N(C)C1=O (stereo partly specified)	9.1	6.8	3.3
CC(C)(O)[C@H]1Cc2cc(C=O)ccc2O1	> 50	> 50	> 50
CCCCC/C=C\CCC(=O)O[C@@H]1[C@](N)(C(=O)O)CC[C@]1(O)c1ccccc1	> 50	> 50	> 50
CC(C)CC1OC(=O)[C@H](Cc2ccccc2)NC(=O)[C@H](Cc2ccccc2)NC(=O)[C@H](Cc2ccccc2)NC(=O)[C@H](Cc2ccccc2)NC(=O)[C@H](Cc2c[nH]c3ccccc23)NC1=O (stereo partly specified) (cyclo(FFFF[ξLac(3-iPr)]W))	30.3	17.3	15.4
CCC(C)[C@H]1OC(=O)[C@H](C(C)C)N(C)C(=O)[C@@H](C(C)CC)OC(=O)[C@H](CC(C)C)N(C)C(=O)[C@@H](C(C)CC)OC(=O)[C@H](C(C)C)N(C)C1=O (stereo partly specified)	3.3	2.8	1.4
CC(=O)CC(O)Cc1cc2cc(O)cc(O)c2c(=O)o1 (stereo unspecified)	> 50	> 50	> 50
CC[C@H](C)[C@H]1OC(=O)[C@H](C(C)C)N(C)C(=O)[C@@H](C(C)C)OC(=O)[C@H](C(C)C)N(C)C(=O)[C@@H]([C@@H](C)CC)OC(=O)[C@H](C(C)C)N(C)C1=O	6.2	2.7	2.8
CC(C)C[C@@H]1OC(=O)[C@H](Cc2ccccc2)N(C)C(=O)[C@@H]2CCCN2C(=O)[C@H](C(C)C)NC(=O)[C@H](Cc2ccccc2)NC(=O)[C@@H]2CCCN2C(=O)[C@@H]2CCCN2C1=O (cyclo(FVP[NMeF][Hica(2S)]PP))	> 50	> 50	20.1
CC(C)CC1OC(=O)[C@H](Cc2ccccc2)NC(=O)[C@H](Cc2ccccc2)NC(=O)[C@H](Cc2ccccc2)NC(=O)[C@H](Cc2ccc(O)cc2)NC1=O (stereo partly specified) (cyclo(FFF[ξLac(3-iPr)]Y))	46.2	> 50	10.7
CN1C(=O)[C@@](C)(O)C(=O)[C@@H]1Cc1ccc2c(c1)CC(C(C)(C)O)O2 (stereo partly specified) [RIGIDIUSCULAMIDE C]	> 50	> 50	> 50
COC(=O)/C=C/c1c(CC=C(C)C)ncn1C	> 50	> 50	> 50
CCCCCCCC(=O)OC1=C(c2ccccc2)CCC1=O	> 50	> 50	> 50
O=c1[nH]cc(F)c(=O)[nH]1 [FLUOROURACIL]	30.3	25.7	36.1
CCCCCCCC(=O)O[C@@H]1[C@](N)(C(=O)O)CC[C@]1(O)c1ccccc1	> 50	> 50	> 50
CCC(C)C1NC(=O)C(CC(C)C)NC(=O)C(C(C)CC)NC(=O)C(CC(C)C)NC(=O)C(CC(C)C)NC1=O (stereo unspecified) (cyclo(ILILL); configuration not given here)	> 50	> 50	14.1
